This note sets out measurements from paper PMC6189519, “Evaluation of the DREAM Technique for a High-Throughput Deorphanization of Chemosensory Receptors in Drosophila” (Frontiers in Molecular Neuroscience, 2018).

Holding throughout (test): single sensillum recording of the wild-type OSN expressing the receptor
The target of one assay is T1, Or22a (Drosophila melanogaster, UniProt P81909).
T1 construct: native full-length receptor in olfactory sensory neurons (ab3A) of wild-type flies; Or22b may be co-expressed; with Odorant receptor coreceptor
T1 sequence (P81909 1-397): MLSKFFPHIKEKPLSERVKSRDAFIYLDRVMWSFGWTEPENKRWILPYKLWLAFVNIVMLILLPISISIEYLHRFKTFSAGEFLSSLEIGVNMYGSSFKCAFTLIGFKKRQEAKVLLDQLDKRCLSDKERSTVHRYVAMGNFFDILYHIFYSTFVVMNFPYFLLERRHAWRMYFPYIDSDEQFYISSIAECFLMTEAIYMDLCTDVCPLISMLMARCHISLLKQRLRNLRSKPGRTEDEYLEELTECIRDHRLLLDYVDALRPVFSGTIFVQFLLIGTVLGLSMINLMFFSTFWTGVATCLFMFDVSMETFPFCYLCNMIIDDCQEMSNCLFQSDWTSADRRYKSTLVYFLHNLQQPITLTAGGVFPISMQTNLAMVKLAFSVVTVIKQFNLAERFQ
T1 sequence (Q9VNB5 1-486 partner): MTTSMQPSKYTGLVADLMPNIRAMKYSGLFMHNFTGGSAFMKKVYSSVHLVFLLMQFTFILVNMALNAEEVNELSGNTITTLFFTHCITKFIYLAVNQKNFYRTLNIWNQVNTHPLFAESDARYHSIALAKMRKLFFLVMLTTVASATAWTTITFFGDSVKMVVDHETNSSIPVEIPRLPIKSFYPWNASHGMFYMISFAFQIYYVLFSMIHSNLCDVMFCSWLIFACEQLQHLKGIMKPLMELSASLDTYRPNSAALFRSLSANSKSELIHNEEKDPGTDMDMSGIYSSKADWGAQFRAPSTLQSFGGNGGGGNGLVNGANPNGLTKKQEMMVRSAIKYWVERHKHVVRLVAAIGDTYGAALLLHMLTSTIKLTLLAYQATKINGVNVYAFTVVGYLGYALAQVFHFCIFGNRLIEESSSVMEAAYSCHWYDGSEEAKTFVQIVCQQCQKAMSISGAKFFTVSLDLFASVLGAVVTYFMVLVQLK
The conditions noted are these: agonist; odorant dilution 10^-1 in hexane, 0.5 s stimulus.

Another assay deals with T2, Ir31a (Drosophila melanogaster, UniProt Q8IPB8).
T2 construct: native full-length ionotropic receptor in olfactory sensory neurons of wild-type flies (single sensillum recording); with Ionotropic receptor 8a
T2 sequence (Q8IPB8 18-629): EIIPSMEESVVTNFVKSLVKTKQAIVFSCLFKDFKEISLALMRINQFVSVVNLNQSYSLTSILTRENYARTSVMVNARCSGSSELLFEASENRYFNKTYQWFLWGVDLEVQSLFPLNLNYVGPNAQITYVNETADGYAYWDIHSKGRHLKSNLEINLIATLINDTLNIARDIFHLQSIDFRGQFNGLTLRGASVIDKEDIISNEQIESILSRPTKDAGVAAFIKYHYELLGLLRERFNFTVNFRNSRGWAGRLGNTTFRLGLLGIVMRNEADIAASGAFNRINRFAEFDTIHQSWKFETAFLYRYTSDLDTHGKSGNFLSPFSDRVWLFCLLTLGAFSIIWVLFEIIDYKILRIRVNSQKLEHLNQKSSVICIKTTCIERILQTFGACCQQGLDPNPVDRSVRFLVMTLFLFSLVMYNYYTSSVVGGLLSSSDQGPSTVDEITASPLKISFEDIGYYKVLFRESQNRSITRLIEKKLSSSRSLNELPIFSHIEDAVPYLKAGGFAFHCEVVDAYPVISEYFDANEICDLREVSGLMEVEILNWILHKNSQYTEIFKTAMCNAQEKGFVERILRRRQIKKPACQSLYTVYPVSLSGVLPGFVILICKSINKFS
T2 sequence (Q9W365 18-936 partner): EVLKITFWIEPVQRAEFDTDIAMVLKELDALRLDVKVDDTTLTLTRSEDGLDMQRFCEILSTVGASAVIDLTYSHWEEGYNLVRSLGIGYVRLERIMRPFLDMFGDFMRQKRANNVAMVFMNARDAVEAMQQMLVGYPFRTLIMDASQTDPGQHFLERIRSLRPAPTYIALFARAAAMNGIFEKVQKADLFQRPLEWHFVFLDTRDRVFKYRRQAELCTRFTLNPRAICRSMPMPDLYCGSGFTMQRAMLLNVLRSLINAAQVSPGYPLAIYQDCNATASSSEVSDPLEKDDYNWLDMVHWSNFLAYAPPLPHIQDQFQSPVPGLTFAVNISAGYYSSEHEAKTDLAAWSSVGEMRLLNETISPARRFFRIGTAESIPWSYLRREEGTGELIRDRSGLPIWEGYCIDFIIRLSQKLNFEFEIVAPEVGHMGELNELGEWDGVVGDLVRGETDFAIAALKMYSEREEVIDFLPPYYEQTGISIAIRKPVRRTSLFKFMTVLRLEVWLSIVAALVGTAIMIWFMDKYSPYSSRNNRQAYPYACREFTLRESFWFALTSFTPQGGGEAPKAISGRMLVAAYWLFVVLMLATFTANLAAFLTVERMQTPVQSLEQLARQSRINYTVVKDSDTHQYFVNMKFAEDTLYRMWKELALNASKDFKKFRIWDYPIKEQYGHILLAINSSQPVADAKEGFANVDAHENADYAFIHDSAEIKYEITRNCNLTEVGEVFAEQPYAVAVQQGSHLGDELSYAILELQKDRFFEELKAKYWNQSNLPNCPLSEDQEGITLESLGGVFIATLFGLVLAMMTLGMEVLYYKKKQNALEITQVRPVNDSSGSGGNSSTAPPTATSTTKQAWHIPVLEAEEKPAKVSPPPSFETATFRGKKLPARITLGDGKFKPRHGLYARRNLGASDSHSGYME
The conditions noted are these: agonist (best ligand); odorant dilution 10^-1 in hexane, 0.5 s stimulus.

Another assay deals with T3, Or19a (Drosophila melanogaster, UniProt Q9I816).
T3 construct: native full-length receptor in olfactory sensory neurons (ai2 sensillum) of wild-type flies; paralogue Or19b may be co-expressed; with Odorant receptor coreceptor
T3 sequence (Q9I816 1-387): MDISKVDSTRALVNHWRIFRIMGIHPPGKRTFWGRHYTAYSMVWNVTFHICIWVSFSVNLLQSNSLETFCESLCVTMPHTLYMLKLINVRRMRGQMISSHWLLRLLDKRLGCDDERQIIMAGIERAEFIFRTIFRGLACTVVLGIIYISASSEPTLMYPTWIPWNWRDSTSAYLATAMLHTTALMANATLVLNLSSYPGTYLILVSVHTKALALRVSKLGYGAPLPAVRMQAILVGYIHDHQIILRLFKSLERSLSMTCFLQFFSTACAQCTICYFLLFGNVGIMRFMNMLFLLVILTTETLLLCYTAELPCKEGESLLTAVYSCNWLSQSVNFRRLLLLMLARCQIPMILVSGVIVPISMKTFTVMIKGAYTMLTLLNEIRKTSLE
T3 sequence (Q9VNB5 1-486 partner): T1 sequence (Q9VNB5 1-486 partner)
As to conditions: odorant dilution 10^-1 in hexane, 0.5 s stimulus.

For another assay, the target named is T4, Or49b (Drosophila melanogaster, UniProt Q9V6H2).
T4 construct: native full-length receptor in olfactory sensory neurons (ab6B) of wild-type flies (single sensillum recording); with Odorant receptor coreceptor
T4 sequence (Q9V6H2 1-375): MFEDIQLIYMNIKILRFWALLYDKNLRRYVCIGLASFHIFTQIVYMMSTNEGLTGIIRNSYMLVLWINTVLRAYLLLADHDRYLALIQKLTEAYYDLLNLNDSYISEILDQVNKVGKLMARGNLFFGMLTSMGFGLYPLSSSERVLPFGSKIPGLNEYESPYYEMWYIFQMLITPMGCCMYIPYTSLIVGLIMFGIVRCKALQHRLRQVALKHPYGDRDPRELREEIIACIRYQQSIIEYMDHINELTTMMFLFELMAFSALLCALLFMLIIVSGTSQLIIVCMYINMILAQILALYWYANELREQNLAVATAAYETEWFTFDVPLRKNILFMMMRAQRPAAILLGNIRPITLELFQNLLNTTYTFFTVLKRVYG
T4 sequence (Q9VNB5 1-486 partner): T1 sequence (Q9VNB5 1-486 partner)
As to conditions: agonist (best ligand); odorant dilution 10^-1 in hexane, 0.5 s stimulus.

Regarding `CCCC(=O)C(=O)O` [2-oxo-valeric acid], the spikes/s entry on Or22a is listed as “both being chemosensory receptors shown to be activated by stimulation with this odorant”; at Ir31a it was “both being chemosensory receptors shown to be activated by stimulation with this odorant”; at Or19a (printed as gated by the odorant, direction not told) it was “Or19a as an OR being gated by 2-oxo-valeric acid”.

On to `CC(=O)OC/C=C(\C)CCC=C(C)C` [geranyl acetate], for which the spikes/s entry at Or19a (agonist) is given as “OSNs expressing Or19a indeed become activated by high amounts of geranyl acetate”. As for `COc1ccccc1O` [guaiacol], at Or49b, the spikes/s result is “confirming the published ligand–receptor interaction of guaiacol and Or49b”.
